In the supplement of paper PMC10307832:

Compound: O=C(c1cc(Cc2n[nH]c(=O)c3ccccc23)ccc1F)N1CCN(C(=O)C2CC2)CC1 [Olaparib] + CC(C)C[C@H](NC(=O)[C@H](Cc1ccccc1)NC(=O)c1cnccn1)B(O)O [Bortezomib] (partner 0.002 µM)
Experiment: relative viability (nuclei count vs DMSO), 5 days (fraction); higher = more cells survive
Details: first compound 8 µM
Outline: (§1)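 For relative viability, nuclei counts in treated wells were divided by those in vehicle wells. Lung cancer cell lines had been pin-tool dosed in 1536-well plates the day after seeding and cultured for 5 days, then fixed and stained in one step (final 0.05% Triton X-100, 1% formaldehyde, 1 ug/ml Hoechst) and imaged at 4×. Doses were one drug alone or a fixed anchor-drug dose plus five library-drug doses (not always all listed) in √10 steps, and values are duplicate-plate medians.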

| Cell Line | relative viability |
| --- | --- |
| RERF-LC-KJ | 1.06 |

Compound: CC(C)C[C@H](NC(=O)[C@H](CCc1ccccc1)NC(=O)CN1CCOCC1)C(=O)N[C@@H](Cc1ccccc1)C(=O)N[C@@H](CC(C)C)C(=O)[C@@]1(C)CO1 [Carfilzomib] + N=C(N)NC(=N)NCCc1ccccc1 [Phenformin] (partner 250 µM)
Experiment: as above
Details: first compound 0.001 µM
Outline: as §1

| Cell Line | relative viability |
| --- | --- |
| LOU-NH91 | 0.724 |
| LU99A | 0.921 |
| LXF-289 | 0.524 |
| NCI-H23 | 0.772 |
| NCI-H322M | 0.77 |
| NCI-H441 | 0.785 |
| NCI-H460 | 0.553 |
| NCI-H520 | 0.609 |
| NCI-H647 | 0.485 |
| NCI-H661 | 0.268 |
| NCI-H727 | 0.559 |
| NCI-H838 | 0.66 |
| NCI-H1355 | 0.427 |
| NCI-H1437 | 0.306 |
| NCI-H1650 | 0.421 |
| NCI-H1651 | 0.33 |

| Cell Line | relative viability |
| --- | --- |
| NCI-H1666 | 0.594 |
| NCI-H1734 | 0.375 |
| NCI-H1755 | 0.623 |
| NCI-H1915 | 0.367 |
| NCI-H1993 | 0.482 |
| NCI-H2009 | 0.514 |
| NCI-H2023 | 0.406 |
| NCI-H2085 | 0.708 |
| NCI-H2087 | 0.471 |
| NCI-H2126 | 0.521 |
| NCI-H2228 | 0.332 |
| NCI-H2347 | 0.274 |
| NCI-H3122 | 0.375 |
| PC-3 [JPC-3] | 0.487 |
| PC-14 | 0.549 |
| RERF-LC-KJ | 0.44 |

Same assay, conditions: first compound 0.003162 µM

| Cell Line | relative viability |
| --- | --- |
| LOU-NH91 | 0.806 |
| LU99A | 0.806 |
| LXF-289 | 0.519 |
| NCI-H23 | 0.684 |
| NCI-H322M | 0.84 |
| NCI-H441 | 0.898 |
| NCI-H460 | 0.582 |
| NCI-H520 | 0.46 |
| NCI-H647 | 0.667 |
| NCI-H650 | 0.536 |
| NCI-H661 | 0.272 |
| NCI-H727 | 0.626 |
| NCI-H838 | 0.865 |
| NCI-H1355 | 0.51 |
| NCI-H1437 | 0.346 |
| NCI-H1650 | 0.254 |
| NCI-H1651 | 0.342 |

| Cell Line | relative viability |
| --- | --- |
| NCI-H1666 | 0.569 |
| NCI-H1734 | 0.404 |
| NCI-H1755 | 0.664 |
| NCI-H1915 | 0.403 |
| NCI-H1975 | 0.367 |
| NCI-H1993 | 0.498 |
| NCI-H2009 | 0.564 |
| NCI-H2023 | 0.444 |
| NCI-H2085 | 0.862 |
| NCI-H2087 | 0.445 |
| NCI-H2126 | 0.621 |
| NCI-H2228 | 0.293 |
| NCI-H2405 | 0.432 |
| NCI-H3122 | 0.446 |
| PC-3 [JPC-3] | 0.461 |
| PC-14 | 0.774 |
| RERF-LC-KJ | 0.421 |

Same assay, conditions: first compound 0.01 µM

| Cell Line | relative viability |
| --- | --- |
| LOU-NH91 | 0.543 |
| LU99A | 0.721 |
| LXF-289 | 0.393 |
| NCI-H23 | 0.762 |
| NCI-H322M | 0.827 |
| NCI-H441 | 0.242 |
| NCI-H460 | 0.571 |
| NCI-H520 | 0.227 |
| NCI-H647 | 0.237 |
| NCI-H650 | 0.451 |
| NCI-H661 | 0.272 |
| NCI-H727 | 0.573 |
| NCI-H838 | 0.537 |
| NCI-H1355 | 0.469 |
| NCI-H1437 | 0.301 |
| NCI-H1650 | 0.232 |
| NCI-H1651 | 0.173 |
| NCI-H1666 | 0.528 |

| Cell Line | relative viability |
| --- | --- |
| NCI-H1734 | 0.331 |
| NCI-H1755 | 0.66 |
| NCI-H1915 | 0.359 |
| NCI-H1975 | 0.197 |
| NCI-H1993 | 0.42 |
| NCI-H2009 | 0.449 |
| NCI-H2023 | 0.416 |
| NCI-H2085 | 0.491 |
| NCI-H2087 | 0.13 |
| NCI-H2126 | 0.532 |
| NCI-H2228 | 0.207 |
| NCI-H2347 | 0.341 |
| NCI-H2405 | 0.395 |
| NCI-H3122 | 0.366 |
| PC-3 [JPC-3] | 0.464 |
| PC-14 | 0.557 |
| RERF-LC-KJ | 0.419 |

Same assay, conditions: first compound 0.03162 µM

| Cell Line | relative viability |
| --- | --- |
| LOU-NH91 | 0.215 |
| LU99A | 0.757 |
| LXF-289 | 0.226 |
| NCI-H23 | 0.36 |
| NCI-H322M | 0.494 |
| NCI-H441 | 0.161 |
| NCI-H460 | 0.0312 |
| NCI-H520 | 0.287 |
| NCI-H647 | 0.0272 |
| NCI-H650 | 0.345 |
| NCI-H661 | 0.248 |
| NCI-H727 | 0.256 |
| NCI-H838 | 0.122 |
| NCI-H1355 | 0.302 |
| NCI-H1437 | 0.249 |
| NCI-H1650 | 0.174 |
| NCI-H1651 | 0.133 |
| NCI-H1666 | 0.428 |

| Cell Line | relative viability |
| --- | --- |
| NCI-H1734 | 0.18 |
| NCI-H1755 | 0.592 |
| NCI-H1915 | 0.255 |
| NCI-H1975 | 0.0933 |
| NCI-H1993 | 0.477 |
| NCI-H2009 | 0.155 |
| NCI-H2023 | 0.145 |
| NCI-H2085 | 0.259 |
| NCI-H2087 | 0.0358 |
| NCI-H2126 | 0.441 |
| NCI-H2228 | 0.0804 |
| NCI-H2347 | 0.163 |
| NCI-H2405 | 0.298 |
| NCI-H3122 | 0.278 |
| PC-3 [JPC-3] | 0.432 |
| PC-14 | 0.115 |
| RERF-LC-KJ | 0.354 |

Same assay, conditions: first compound 0.1 µM

| Cell Line | relative viability |
| --- | --- |
| LOU-NH91 | 0.221 |
| LU99A | 0.263 |
| LXF-289 | 0.0577 |
| NCI-H23 | 0.134 |
| NCI-H322M | 0.306 |
| NCI-H441 | 0.177 |
| NCI-H460 | 0.0172 |
| NCI-H520 | 0.227 |
| NCI-H647 | 0.0185 |
| NCI-H650 | 0.148 |
| NCI-H661 | 0.215 |
| NCI-H727 | 0.182 |
| NCI-H838 | 0.13 |
| NCI-H1355 | 0.167 |
| NCI-H1437 | 0.123 |
| NCI-H1650 | 0.156 |
| NCI-H1651 | 0.0929 |
| NCI-H1666 | 0.278 |
